# Measured values as given in ChEMBL document CHEMBL1795312, “Insights into the structural requirements of farnesyltransferase inhibitors as potential anti-tumor agents based on 3D-QSAR CoMFA and CoMSIA models” (Eur J Med Chem, 2008).
# Test: Inhibition of farnesyltransferase
row,pIC50,Structure (SMILES)
1,7.53,Cc1ccccc1-c1cc(C(OCc2nc(-c3ccc(Cl)cc3)cs2)c2cncn2C)ccc1C#N (stereo not drawn)
2,8.85,CCOc1cccc(-c2cc(C#N)ccc2COCc2cncn2Cc2ccc(Cl)cc2)c1
3,7.22,COc1ccc(COC(c2ccc(C#N)c(-c3ccccc3C)c2)c2cncn2C)cc1 (stereo not drawn)
4,7.96,N#Cc1ccc(Cn2cncc2CNC2CCN(C(=O)c3cccc4ccccc34)C2=O)cc1 (stereo not drawn)
5,8.67,Cc1cccc(-c2cc(C(OCc3ccc(C#N)cc3)c3cncn3C)ccc2C#N)c1C (stereo not drawn)
6,9.43,N#Cc1ccc(Cn2cncc2COCc2ccc(C#N)cc2-c2ccc(Cl)c(Cl)c2)cc1
7,8.65,COc1cccc(-c2cc(C#N)ccc2COCc2cncn2Cc2ccc(Cl)cc2)c1
8,6.01,N#Cc1ccc(Cn2cncc2CNC2CCN(C(=O)c3cccnc3N)C2=O)cc1 (stereo not drawn)
9,7.23,CCCN(Cc1cncn1Cc1ccc(C#N)cc1)C1CCN(Cc2ccccc2)C1=O (stereo not drawn)
10,8.44,Cn1cncc1C(OCc1ccc(C#N)c(N2CCC[C@@H]2C(=O)O)n1)c1ccc(C#N)c(-c2ccccc2C(F)(F)F)c1 (stereo partly drawn)
11,7.6,N#Cc1ccc(Cn2cncc2CNC2CCN(Cc3ccc(Cl)cc3)C2=O)cc1 (stereo not drawn)
12,8.92,CCOc1ccc(-c2cc(C#N)ccc2COCc2cncn2Cc2ccc(C#N)cc2)cc1
13,6.6,N#Cc1ccc(Cn2cncc2CCN[C@@H]2CCN(Cc3ccccc3)C2=O)cc1
14,7.29,N#Cc1ccc(Cn2cncc2CN(CCc2ccccc2)C2CCN(Cc3ccccc3)C2=O)cc1 (stereo not drawn)
15,8.38,Cn1cncc1C(OCc1ccc(F)c(C(F)(F)F)c1)c1ccc(C#N)c(-c2ccccc2C(F)(F)F)c1 (stereo not drawn)
16,5.54,N#Cc1ccc(Cn2cncc2CNC2CCN(C(=O)c3cccnc3S)C2=O)cc1 (stereo not drawn)
17,7.06,Cc1ccccc1-c1cc(C(OCc2ccc(C(C)(C)C)cc2)c2cncn2C)ccc1C#N (stereo not drawn)
18,7.88,Cc1ccccc1-c1cc(C(OCc2cccc(Br)c2)c2cncn2C)ccc1C#N (stereo not drawn)
19,8.08,Cc1ccccc1-c1cc(C(OCc2cccc(OC(F)(F)F)c2)c2cncn2C)ccc1C#N (stereo not drawn)
20,7.21,Cc1cccc(COC(c2ccc(C#N)c(-c3ccccc3C)c2)c2cncn2C)c1 (stereo not drawn)
21,7.57,N#Cc1ccc(Cn2cncc2CNC2CCN(C(=O)c3cccc(Cl)c3)C2=O)cc1 (stereo not drawn)
22,9.3,N#Cc1ccc(Cn2cncc2COCc2ccc(C#N)cc2-c2cccc(OC(F)(F)F)c2)cc1
23,7.95,Cc1ccccc1-c1cc(C(OCc2ccc(Cl)cc2)c2cncn2C)ccc1C#N (stereo not drawn)
24,8.72,Cn1cncc1C(OCc1ccc(C#N)cc1)c1ccc(C#N)c(-c2ccccc2C=O)c1 (stereo not drawn)
25,9.09,Cn1cncc1C(OCc1ccc(C#N)cc1)c1ccc(C#N)c(-c2ccccc2C(F)(F)F)c1 (stereo not drawn)
26,9.04,N#Cc1ccc(OCc2cncn2Cc2ccc(C#N)c(-c3cccc4ccccc34)c2)nc1
27,7.79,Cc1ccccc1-c1cc(C(OCc2ccc(OC(F)(F)F)cc2)c2cncn2C)ccc1C#N (stereo not drawn)
28,8.28,N#Cc1ccc(Cn2cncc2CNC2CCN(Cc3ccccc3Cl)C2=O)cc1 (stereo not drawn)
